What all share (format): cell-based
The target in one data set is T1, BCRP (Homo sapiens, UniProt Q9UNQ0).
T1 construct: expressed in transfected cells; host or cells: HEK293
T1 sequence (Q9UNQ0 1-655): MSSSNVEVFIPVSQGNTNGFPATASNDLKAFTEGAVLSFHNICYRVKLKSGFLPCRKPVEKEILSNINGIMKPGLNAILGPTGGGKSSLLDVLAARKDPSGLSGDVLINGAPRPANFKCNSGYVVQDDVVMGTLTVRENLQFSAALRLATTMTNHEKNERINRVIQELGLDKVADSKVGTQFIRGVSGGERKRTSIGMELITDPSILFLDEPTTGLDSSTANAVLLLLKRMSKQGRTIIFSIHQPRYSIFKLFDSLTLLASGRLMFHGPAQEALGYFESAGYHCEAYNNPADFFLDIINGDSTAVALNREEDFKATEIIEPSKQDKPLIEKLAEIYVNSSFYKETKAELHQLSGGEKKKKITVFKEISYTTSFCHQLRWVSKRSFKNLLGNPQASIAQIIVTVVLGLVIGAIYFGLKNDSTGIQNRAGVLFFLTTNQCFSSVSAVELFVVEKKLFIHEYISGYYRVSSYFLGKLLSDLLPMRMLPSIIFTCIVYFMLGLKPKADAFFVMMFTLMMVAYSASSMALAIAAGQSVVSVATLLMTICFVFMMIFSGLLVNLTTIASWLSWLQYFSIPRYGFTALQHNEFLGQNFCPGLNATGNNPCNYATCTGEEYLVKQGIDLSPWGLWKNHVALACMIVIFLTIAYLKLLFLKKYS
The data set can be described thus: BCRP activity: Hoechst 33342 retention in HEK-BCRP cells. The settings on record: for inhibition at 90 min, 100 μM: human. The protocol: For retention assay (used for BCRP activity), HEK-BCRP cells cultured in 48-well plates were first loaded at 37°C with transport assay (200 μL/well) containing 16.2 μM Hoechst 33342 for 30 min. After washing twice in PBS (200 μL/well/washing), cells were reincubated in Hoechst 33342-free transport assay medium (200 μL/well) at 37°C for 90 min in the absence or presence of pyrethroids or of the BCRP reference inhibitor fumitremorgin C used at 10 μM. Cells were next lysed in distilled water (155 μL/well) after washing twice in PBS (200 μL/well/washing). The cell lysate was finally used for determining cellular protein content and intracellular retention of Hoechst 33342 (by spectrofluorimetry: excitation and emission wavelengths were 355 and 460 nm, respectively), as described above.
The initial tested concentration of pyrethroids was 100 μM.

The target in data set [1] is T2, OCT1 (Homo sapiens, UniProt O15245).
T2 sequence (O15245 1-554): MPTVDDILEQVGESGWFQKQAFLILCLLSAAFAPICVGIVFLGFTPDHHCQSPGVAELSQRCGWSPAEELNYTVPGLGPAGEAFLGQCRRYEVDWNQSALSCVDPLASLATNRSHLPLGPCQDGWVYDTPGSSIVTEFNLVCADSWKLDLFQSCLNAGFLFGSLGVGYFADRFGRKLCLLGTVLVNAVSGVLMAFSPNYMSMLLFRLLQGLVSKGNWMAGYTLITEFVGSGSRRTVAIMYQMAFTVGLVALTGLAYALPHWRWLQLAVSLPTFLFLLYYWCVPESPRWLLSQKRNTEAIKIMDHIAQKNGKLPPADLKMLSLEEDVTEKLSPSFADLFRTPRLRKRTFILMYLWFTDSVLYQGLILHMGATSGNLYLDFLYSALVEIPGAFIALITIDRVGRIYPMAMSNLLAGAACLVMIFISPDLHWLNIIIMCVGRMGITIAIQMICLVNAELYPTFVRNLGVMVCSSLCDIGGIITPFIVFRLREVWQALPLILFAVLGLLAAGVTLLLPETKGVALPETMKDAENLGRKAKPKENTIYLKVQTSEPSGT
Description: Dopamine accumulation in OCT1-transfected HEK293 cells. The protocol: HEK-MOCK and HEK-OCT1 cells were incubated with transport assay medium containing 11 nM 3,4-[Ring-2,5,6-^3H]-dopamine, in the absence or presence of the reference OCT1 inhibitor verapamil or of pyrethroids for 5 min at 37°C in the transport assay medium described above. After washing twice with PBS, cells were lysed in distilled water and intracellular accumulation of dopamine was finally measured by scintillation counting.
(A) HEK-OCT1 and HEK-MOCK cells were incubated with 11 nM 3,4-[Ring-2,5,6-^3H]-dopamine in the absence or presence of the reference OCT1 inhibitor verapamil (100 μM) for 5 min at 37°C. Intracellular accumulation of 3,4-[Ring-2,5,6-^3H]-dopamine was then determined by scintillation counting. […] Intracellular accumulation of 3,4-[Ring-2,5,6-^3H]-dopamine was then determined by scintillation counting. Data are expressed as percentages of OCT1-mediated transport of dopamine in control pyrethroid-unexposed cells, determined by subtracting accumulation of dopamine in HEK-MOCK cells from that in HEK-OCT1 cells in the absence of pyrethroids, arbitrarily set at 100% and indicated by a dotted line on the graph.

Data set [2] concerns the target T2, OCT1. Description: Cis-inhibition of OCT1-mediated TEA accumulation in HEK-OCT1 cells. The settings on record: pyrethroid 100 μM; 29 μM [14C]-TEA, 5 min. How it is done:
Intracellular accumulation of TEA was then determined by scintillation counting. […] After washing, cells were next re-incubated with 29 μM [1-^14C]-TEA for 5 min at 37°C. Intracellular accumulation of [1-^14C]-TEA was then determined by scintillation counting.

The next data set has as its target T3, OATP1B3 (Homo sapiens, UniProt Q9NPD5).
T3 construct: expressed in transfected cells; host or cells: CHO
T3 sequence (Q9NPD5 1-702): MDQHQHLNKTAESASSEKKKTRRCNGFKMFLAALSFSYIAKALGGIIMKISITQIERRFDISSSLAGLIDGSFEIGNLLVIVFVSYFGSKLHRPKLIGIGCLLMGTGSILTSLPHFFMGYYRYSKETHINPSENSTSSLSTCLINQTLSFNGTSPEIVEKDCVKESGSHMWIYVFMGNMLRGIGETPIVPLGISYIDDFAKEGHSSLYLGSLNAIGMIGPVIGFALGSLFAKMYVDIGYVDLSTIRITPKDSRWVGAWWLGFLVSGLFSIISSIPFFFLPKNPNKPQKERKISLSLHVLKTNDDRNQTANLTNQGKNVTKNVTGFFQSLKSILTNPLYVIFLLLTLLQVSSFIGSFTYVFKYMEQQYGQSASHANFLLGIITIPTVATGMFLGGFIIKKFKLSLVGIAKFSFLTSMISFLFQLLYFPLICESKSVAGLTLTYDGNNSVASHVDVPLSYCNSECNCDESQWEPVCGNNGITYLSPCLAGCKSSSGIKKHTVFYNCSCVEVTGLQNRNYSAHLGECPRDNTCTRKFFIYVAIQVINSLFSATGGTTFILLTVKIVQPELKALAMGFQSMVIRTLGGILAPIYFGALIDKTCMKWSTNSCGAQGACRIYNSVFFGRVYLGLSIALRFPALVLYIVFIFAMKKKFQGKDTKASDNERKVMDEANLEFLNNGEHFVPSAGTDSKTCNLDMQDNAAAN
The data set can be described thus: OATP1B3 activity: fluorescein accumulation in CHO-OATP1B3 cells. The settings on record: pyrethroid up to 100 μM.

Where two headings read alike, the source gives them in different places.

Description for OATP1B3: The effects of pyrethroids on activity of ABC and SLC transporters were determined through measuring cellular accumulation or retention of fluorescent or radiolabeled reference substrates for transporters, in the presence or absence of reference inhibitors, as previously described [41].
For accumulation assays (performed for all transporters, excepted BCRP), transporter-expressing cells usually cultured in 48-well plates were first incubated at 37°C with reference substrates in the absence (control) or presence of pyrethroids or reference inhibitors, in a well-defined transport assay medium [42], consisting of 136 mM NaCl, 5.3 mM KCl, 1.1mM KH2PO4, 0.8 mM MgSO4, 1.8 mM CaCl2, 10 mM HEPES, 11 mM D-glucose and adjusted to pH = 7.4 (excepted for MATE transporter assays, for which pH was set to 8.4). The nature of substrates and reference inhibitors and the incubation times with substrates, that varied according to the transporter, were selected in agreement with previous studies [41, 43] and are indicated in S3 Table. The total incubation volume with substrates was 200 μL/well. […]
Intracellular concentrations of reference substrates were initially expressed as fluorescence arbitrary units (for fluorescent dye substrates) or as moles (for radiolabeled substrates) and normalized to cellular protein content, determined by the Bradford method [44]. […]

One may read the IC50 as the concentration that inhibits the measured activity by half. Lower therefore signals greater potency in that assay. What is called inhibition is the drop in the measured response relative to a control, in per cent. For `C=CCC1=C(C)C(OC(=O)C2C(C=C(C)C)C2(C)C)CC1=O` (stereo not drawn) [allethrin], at BCRP, the IC50 was determined as 42.5 µM and the inhibition at 90 min, 100 μM amounted to 83.9%. In addition, the “effect on OCT1-mediated transport of dopamine” value on OCT1 [1] (pyrethroid 10, 100 or 300 μM, 11 nM dopamine, 5 min) is on record as “significantly inhibit”. In addition, the “cis-effect on TEA accumulation in HEK-OCT1 cells” value at OCT1 [2] is “markedly cis-inhibit”.

`CC(C)=CC1C(C(=O)OCN2C(=O)C3=C(CCCC3)C2=O)C1(C)C` (stereo not drawn) [tetramethrin]: the IC50 on BCRP worked out at 72.5 µM. The inhibition at 90 min, 100 μM at BCRP (pyrethroid 100 μM, HEK-BCRP cells, Hoechst 33342, read-out: inhibition of BCRP activity) amounted to 67.1%. Moreover, the “effect on OATP1B3 activity” value on OATP1B3 is recorded as “failed to alter”; on OATP1B3 (listed as Tetramethrin), “No effect (up to 100 μM)”. Also, the “effect on OCT1-mediated dopamine uptake” value on OCT1 [1] (pyrethroid 10 μM) was “failed to significantly alter”.

The values above are taken from paper PMC5242521 (PLoS ONE, 2017).
